According to US12509421B2, “Preparation and application of deuterated 4-phenyl-4-piperidinols” (priority 2022, dated 2025):
Counter-ions that a name gives are not always drawn. Like-named read-outs stand apart in the source and are kept apart here.

Legend:
κOR = molecular target: T1, κOR (Homo sapiens, UniProt P41145); assay: Opioid receptor competitive binding test, κOR; conditions: [3H]-labeled ligand, CHO cell membranes, ± SD of three measurements; for κOR binding rate: compound at 10 μM
T1 construct: expressed in transfected cells; host or cells: CHO cells
Description: (§1) CHO cells expressing p opioid receptor, δ opioid receptor and K opioid receptor are cultured in a 10 cm^2 Petri dish (F-12 medium+10% newborn bovine serum) for several days, and the culture solution is sucked after the cells grew to the bottom of the dish. 3 ml PBS/EDTA solution (0.1M NaCl, 0.01M NaH2PO4, 0.04% EDTA) is added for digestion for 3-5 minutes. The cells are blown with a straw to get fall off completely, collected in a 40 ml centrifuge tube, centrifuged at 5000 rpm for 5 minutes, and removed with the supernatant. The centrifuge tube is added with ice-cold homogenate (50 mM HEPES PH 7.4, 3 mM MgCl2, 1 mM EGTA). The solution and precipitate are transferred to homogenizer for homogenization; Then the homogenate is transferred into a centrifuge tube, centrifuged at 18000 rpm for 15 minutes, and centrifuged twice; the obtained precipitate is added with an appropriate amount of buffer solution of 50 mM Tris-HCl and pH 7.4, homogenized and sub-packaged in centrifuge tubes. The product is stored in a refrigerator at −70° C. for later use.
(§2) 20-30 μg expressed membrane receptor protein and [3H]-labeled ligand (1-2 nM) are added to the total binding tube, added with 1 μM of corresponding ligand to the corresponding nonspecific binding tube. Various screened opioid ligand drugs (see the drug compounds in Table 1 below) are added to the sample tube with 100 μL final volume. The sample is incubated at 30° C. for 30 minutes, and the reaction is terminated in ice water. The glass fiber filter paper gF/C (whatman) is used for negative pressure filtration on Millipore sample collector. The sample is eluted with 4 ml 50 mm tris-HCl (pH 7.4) for three times, dried with the filter paper, put in 0.5 ml Eppendorf tube and added with 0.5 ml lipophilic scintillation liquid. The radioactive intensity is measured with PERKIN ELMER PRI-CARB 2910 liquid scintillation counter with calculation of the inhibition rate. The experiment is repeated for more than three times, with three compound tubes in each group. Inhibition rate(or binding rate)=(total binding rate dpm−sample tube dpm)/(total binding tube dpm-nonspecific binding tube dpm)×100%
(§3) IC50 is calculated with Prism 5.0 software. The Ki value is calculated according to the following formula: Ki=IC50/(1^+[L]/Kd), wherein [L] is the concentration of the added labeled ligand, and Kd is the equilibrium dissociation parameter of the labeled ligand.

hERG potassium channel = hERG potassium channel (Homo sapiens, UniProt Q12809); assay: hERG potassium channel whole-cell patch clamp (HEK293); type: cell-based; set-up: expressed in transfected cells; host or cells: HEK293 cell line; conditions: for IC50: HEK293 cells stably expressing hERG, whole-cell patch clamp, room temperature, read-out: Half-inhibition concentration of compounds to be tested on hERG (IC50)
Text: The rapidly activated potassium channel encoded by human ether-a-go-go-related gene (hERG) is an important ion channel involved in the formation of phase 3 repolarization of myocardial action potential. […] Drug-induced delayed ventricular repolarization may cause fatal arrhythmia-torsade de pointes in some cases. According to statistics, about 25-40% of the lead compounds show different degrees of hERG-related toxicity, and many drugs are withdrawn from the market because they may lead to the risk of QT interval extension. At present, National Medical Products Administration also requires hERG/IKr safety evaluation data before clinical trial application (IND) of new drugs under study. • 1. Whole-cell patch clamp technique is used to study the inhibitory effect of compounds on hERG potassium channels: • 1) the compound to be tested is stored with physiological saline prepared into 10 mM liquid. The test stock solution is diluted with physiological saline into 3 mM, 1 mM and 0.3 mM diluents in turn. […] The old culture medium removed and is washed once with PBS, then added with 1 mL TrypLE™ Express solution and incubated at 37° C. for about 0.5 minutes. When the cells are detached from the bottom of the dish, about 5 ml complete medium preheated is added at 37° C. The cell suspension is gently blown with a straw to separate the aggregated cells. The cell suspension is transferred to a sterile centrifuge tube and centrifuged at 1000 rpm for 5 minutes to collect cells. […] The clamping voltage is depolarized from −80 mV to −50 mV for 0.5 seconds (as leakage current detection), then stepped to 30 mV for 2.5 seconds, and then quickly recovered to −50 mV for 4 seconds, which can excite the tail current of hERG channel. Data are collected repeatedly every 10s to observe the effect of drugs on hERG tail current. 0.5 seconds-50 mV stimulation is used as leakage current detection. The test data are collected by IPA amplifier (Sutter Instrument) and stored in SutterPatch software.
Capillary glass tube is drawn into recording electrode by microelectrode drawing instrument. Under the inverted microscope, the microelectrode manipulator is operated to contact the recording electrode with the cell, and negative pressure suction is given to form a GΩ seal. After the GΩ seal is formed, rapid capacitance compensation is carried out, and then negative pressure is continuously applied to break the cell membrane, forming a whole cell recording mode. Then the slow capacitance is compensated and the film capacitance and series resistance are recorded. No leakage compensation is given.
When the hERG current recorded in the whole cell is stable, the drug is administered, and the next concentration is detected after each drug concentration acts for 5 minutes (or the current is stable), and multiple concentrations are detected for each test compound. The cover glass covered with cells is placed in the recording bath in an inverted microscope, and the test compound and the external liquid containing no compound flowed through the recording bath from low concentration to high concentration by gravity perfusion method, so as to act on the cells, and liquid exchange is carried out by using a vacuum pump during recording. The current detected by each cell in the external fluid without compounds is used as its own control group.
At least two cells are used to detect each concentration independently and repeatedly twice. All electrophysiological tests are conducted at room temperature.
Firstly, the current after each drug concentration and the blank control current are standardized
[formula] followed by the calculation of the inhibition rate
[formula] corresponding to each drug concentration, the average and standard deviation for each concentration, and the semi-inhibition concentration of each compound with the following equation: […]
The dose-dependent effect is nonlinear fitted by the above equation, and IC50 is semi-inhibitory concentration.

Female Kunming mice = assay: Hot plate analgesia test in mice; type: in vivo; conditions: 55° C. hot plate; for ED50: Mus musculus, ip
Description: Female Kunming mice weighing about 20 g are placed on a hot plate instrument preheated to 55° C., and the latency of licking hind feet or lifting hind feet is used as the pain threshold index. Animals are screened before the experiment, and animals with latency less than 5 s or more than 30 s are excluded. To prevent foot burns, the longest observation time is set to 60s. The basic pain threshold is the average of two measurements, and the interval between the two measurements is 5 minutes. The pain threshold of mice in each group is determined at 15 minutes, 30 minutes, 60 minutes and 120 minutes after intraperitoneal administration. The effective percentage of analgesia (% MPE) is calculated according to the following formula
[formula] According to the effective percentage of analgesia, the ED50 value is calculated by graphpad prism 5.0 software.

μOR = molecular target: T2, μOR (Homo sapiens, UniProt P35372); assay: Opioid receptor competitive binding test, μOR; conditions: [3H]-labeled ligand, CHO cell membranes, ± SD of three measurements; for μOR binding rate: compound at 10 μM
T2 construct: expressed in transfected cells; host or cells: CHO cells
Description: as §1, §2, §3

δOR = molecular target: T3, δOR (Homo sapiens, UniProt P41143); assay: Opioid receptor competitive binding test, δOR; conditions: [3H]-labeled ligand, CHO cell membranes, ± SD of three measurements; for δOR binding rate: compound at 10 μM
T3 construct: expressed in transfected cells; host or cells: CHO cells
Description: as §1, §2, §3

ICR mice = assay: Evaluation of side effects of constipation (defecation time, number, weight); type: in vivo; conditions: 7.5 mg/kg
Description: Constipation side effect is a common side effect of opioid drugs. This patent evaluates the possibility of constipation side effect by the influence of the compound on defecation time, defecation quantity and defecation weight of experimental animals.
ICR mice are randomly divided into 6 groups with 10 mice in each group after adaptive feeding. Fasting for 16-24 h, without stopping drinking, the blank control group is given solvent, during which the normal diet is: (1) the blank control group; (2) Compound diphenoxylate (7.5 mg/kg) group; (3) Low dose (1 mg/kg) group; (4) High dose (5 mg/kg) group of the compound to be tested.
After administration for 30 minutes, the mice in each group are given Chinese ink by gavage. After administration, the mice are kept in a single cage, and the excretion time of the first black stool is recorded. The number and weight (wet weight) of defecation particles in each mouse within 5 hours after administration are recorded. each group of mice are placed in an IVC cage with clean filter paper. The feces of each mouse are collected, put into a sterile 1.5 ml EP tube and stored in an ice box. During the collection, the number of defecation particles of each mouse is recorded, and the wet weight is weighed. After the collected feces are dried, the dry weight of the feces is recorded. Drying conditions: put fresh feces in an oven and bake at 100° C. for 5-10 minutes until the dry weight of feces is constant. The following formula is used to calculate the water content of feces, and the water content of feces (%)=(wet feces mass−dry feces mass)/wet feces mass×100%.
The data required for measurement and observation in this experiment are recorded in the corresponding table. All data are statistically processed by Microsoft Excel, and expressed as “mean standard error”. The data of each group are statistically analyzed by SPSS software package.

Molecule | κOR binding rate (κOR) [%] | μOR binding rate (μOR) [%] | δOR binding rate (δOR) [%] | Maximum analgesic effective percentage (% MPE), hot plate (Female Kunming mice; 10 mg/kg, intraperitoneal) [%] | further results
[2H]C([2H])([2H])Oc1cccc(C2(O)CCN(C(=O)Cc3cc(F)c(F)cc3F)CC2CN(C([2H])([2H])[2H])C([2H])([2H])[2H])c1 (centres unmarked) [I-7hydrochloride] | 15.9 ± 0.7 | 20.7 ± 2.2 | 9.9 ± 0.5 | – | hERG inhibition grade (hERG potassium channel): μM((Weak inhibition); IC50 (hERG potassium channel): 21600 nM; ED50 (Female Kunming mice; intraperitoneal): 0.89 mg/kg
(3R,4S)-1-(benzylsulfonyl)-4-(3-hydroxyphenyl)-3-(((methyl(methyl-d3)amino)methyl)-4-piperidinol [II-2hydrochloride] | – | – | – | – | Ki (κOR): 25.6 ± 2.72 nM; hERG inhibition grade (hERG potassium channel): μM((Weak inhibition); IC50 (hERG potassium channel; listed as II-2): 25100 nM; IC50 (hERG potassium channel; listed as Il-2hydrochloride): 14700 nM; Ki (μOR): 0.12 nM; Ki (δOR): 482 ± 28.4 nM
[2H]C([2H])([2H])Oc1cccc([C@]2(O)CCN(S(=O)(=O)Cc3ccccc3)C[C@H]2CN(C)C([2H])([2H])[2H])c1 [II-6hydrochloride] | 14.5 ± 3.1 | 28.4 ± 2.0 | 10.5 ± 1.7 | – | ED50 (Female Kunming mice; intraperitoneal): 0.79 mg/kg
CCOC(=O)C1(c2ccccc2)CCN(CCC(C#N)(c2ccccc2)c2ccccc2)CC1 [Diphenoxylate, reference compound] | – | – | – | – | Number of defecating animals (ICR mice; 10 mice per group, within 5 hours): 10; Defecation time (ICR mice; first black stool, x ± SE, only animals that defecate within 5 hours): 148.4 ± 7.9 min; water content of feces (ICR mice; only animals that defecate within 5 hours, x ± SE): 41.4 ± 3.7%; Fecal weight (ICR mice; within 5 hours, x ± SE): 0.3005 ± 0.0289 g
[2H]C([2H])([2H])Oc1cccc(C2(O)CCN(C(=O)Cc3cc(F)c(F)cc3F)CC2CN(C)C([2H])([2H])[2H])c1 (centres unmarked) [I-6hydrochloride] | 20.5 ± 2.3 | 21.0 ± 3.0 | 11.6 ± 1.7 | 100 | –
CN(C)C[C@@H]1CN(S(=O)(=O)Cc2ccccc2)CC[C@@]1(O)c1cccc(O)c1.Cl [Example 22 of CN201911076305.X, (3R, 4S)-1-(benzylsulfonyl)-3-(dimethylamino)methyl)-4-(3-hydroxyphenyl)-4-piperidinol hydrochloride, reference compound] | – | – | – | – | Ki (κOR): 33.7 ± 3.26 nM; Ki (μOR): 0.17 nM; Ki (δOR): 1100 ± 42 nM
COc1cccc(C2(O)CCCCC2CN(C)C)c1 (centres unmarked) [Tramadol, reference compound] | 0 | 6.0 ± 0.4 | 0 | – | Maximum analgesic effective percentage (% MPE), hot plate (Female Kunming mice; 50 mg/kg dosage): 64.5% ((50 mg/kg/dosage)
CN(C)C[C@@H]1CN(S(=O)(=O)Cc2ccccc2)CC[C@@]1(O)c1cccc(O)c1.Cl [Example 22 of CN201911076305.X, reference compound] | – | – | – | – | hERG inhibition grade (hERG potassium channel; listed as Example 22 of patent CN201911076305.X, hydrochloride): moderate inhibitory effects on hERG; hERG inhibition grade (hERG potassium channel; listed as example 22 of the prior art of CN201911076305.X, hydrochloride): μM(Moderate intensity inhibition)
[2H]C([2H])([2H])Oc1cccc(C2(O)CCN(S(=O)(=O)Cc3ccccc3)CC2CN(C)C([2H])([2H])[2H])c1 (centres unmarked) [I-2hydrochloride] | 23.8 ± 1.9 | 24.75 ± 3.1 | 10.9 ± 1.2 | 100 | –
[2H]C([2H])([2H])Oc1cccc([C@]2(O)CCN(C(=O)Cc3cc(F)c(F)cc3F)C[C@H]2CN(C)C([2H])([2H])[2H])c1 [II-12hydrochloride] | 13.6 ± 1.9 | 26.3 ± 1.2 | 12.0 ± 3.3 | 100 | –
